Source: patent US6989371B1, “Bombesin analogs for treatment of cancer” (Dabur Research Foundation, priority 1996, dated 2006)
Non-standard residues stand in square brackets, D forms with d. Residues, ends and D or L forms follow the SMILES beside them. *: point of attachment. Ac5c = NC1(C(=O)O)CCCC1; Aib = CC(C)(N)C(=O)O; Butyryl = CCCC(=O)*

Assays:
Experiment in all cases: MTT cytotoxicity assay, 48 hours (Example 14)
[1] = system: HuTu80 (Stomach); format: cell-based, human
Method: (§1) The cytotoxic effect of peptide sequences SEQ ID NO: 9, SEQ ID NO: 10, SEQ ID NO: 11 and SEQ ID NO: 12, were studied by MTT assay which is based on the principle of uptake of MTT[3-[4,5-dimethylthiazol-2-yl]-2,5-diphenyl tetrazolium bromide], a tetrazolium salt by the metabolically active cells where it is metabolized by active mitochondria into a blue colored formazan product which can be read spectrophotometrically. Tumor cells KB (oral squamous). HuTu80 (Stomach), PTC and SW620 (colon), U87MG (Glioblastoma), HBL 100. (Breast), HeP2 (laryngeal) and L132 (Lung) were incubated with the peptide analogs for 48 hours at 37° C. in a 96-well culture plate, followed by the addition of 100 μl MTT and further incubation of 1 hour. The formazon crystals formed inside the cells were dissolved with a detergent comprising 10% Sodium dodecyl sulfate and 0.01 N HCl and optical density read on a multiscan ELISA reader. The optical density was directly proportional to the number of proliferating and metabolically active cells.

[2] = system: KB (oral squamous); format: cell-based, human
Method: as §1

[3] = system: HBL 100 (Breast); format: cell-based, human
Method: as §1

[4] = system: SW620 (colon); format: cell-based, human
Method: as §1

[5] = system: PTC (colon); format: cell-based, human
Method: as §1

[6] = system: HeP2 (laryngeal); format: cell-based
Method: as §1

[7] = system: L132 (Lung); format: cell-based
Method: as §1

[8] = system: U87MG (Glioblastoma); format: cell-based
Method: as §1

Structure (SMILES): CCCC(=O)N[C@H](Cc1ccccc1)C(=O)N[C@@H](CCC(N)=O)C(=O)N[C@@H](Cc1c[nH]c2ccccc12)C(=O)N[C@@H](C)C(=O)N[C@H](C(=O)NC(C)(C)C(=O)N[C@@H](Cc1c[nH]cn1)C(=O)N[C@@H](CC(C)C)C(N)=O)C(C)C [SEQ ID: 11, Butanoyl-D-Phe-Gln-Trp-Ala-Val-Aib-His-Leu-NH2] (Butyryl-[dF]QWAV[Aib]HL-NH2)
- Percentage cytotoxicity ([1]; HuTu80, 10 pM): 17.6 ± 1.6%
- Percentage cytotoxicity ([1]; HuTu80, 100 pM): 22.6 ± 3.9%
- Percentage cytotoxicity ([1]; HuTu80, 1 nM): 30.5 ± 4.1%
- Percentage cytotoxicity ([1]; HuTu80, 10 nM): 27.3 ± 2.7%
- Percentage cytotoxicity ([1]; HuTu80, 100 nM): 20.0 ± 3.1%
- Percentage cytotoxicity ([1]; HuTu80, 1 μM): 14.2 ± 0.1%
- Percentage cytotoxicity ([2]; 10 pM): 21.6 ± 3.7%
- Percentage cytotoxicity ([2]; 100 pM): 26.7 ± 5.1%
- Percentage cytotoxicity ([2]; 1 nM): 33.1 ± 2.1%
- Percentage cytotoxicity ([2]; 10 nM): 31.9 ± 3.1%
- Percentage cytotoxicity ([2]; 100 nM): 31.9 ± 2.1%
- Percentage cytotoxicity ([2]; 1 μM): 24.2 ± 1.2%
- Percentage cytotoxicity ([3]; HBL100, 10 pM): 18.2 ± 1.1%
- Percentage cytotoxicity ([3]; HBL100, 100 pM): 15.4 ± 4.1%
- Percentage cytotoxicity ([3]; HBL100, 1 nM): 24.3 ± 1.6%
- Percentage cytotoxicity ([3]; HBL100, 10 nM): 29.9 ± 0.3%
- Percentage cytotoxicity ([3]; HBL100, 100 nM): 22.7 ± 0.5%
- Percentage cytotoxicity ([3]; HBL100, 1 μM): 24.5 ± 0.8%
- Percentage cytotoxicity ([4]; SW620, 10 pM): 20.4 ± 0.3%
- Percentage cytotoxicity ([4]; SW620, 100 pM): 25.9 ± 3.8%
- Percentage cytotoxicity ([4]; SW620, 1 nM): 35.1 ± 2.2%
- Percentage cytotoxicity ([4]; SW620, 10 nM): 31.5 ± 2.6%
- Percentage cytotoxicity ([4]; SW620, 100 nM): 21.0 ± 1.5%
- Percentage cytotoxicity ([4]; SW620, 1 μM): 23.7 ± 1.4%
- Percentage cytotoxicity ([5]; 10 pM): 19.7 ± 0.6%
- Percentage cytotoxicity ([5]; 100 pM): 28.3 ± 0.8%
- Percentage cytotoxicity ([5]; 1 nM): 28.5 ± 2.8%
- Percentage cytotoxicity ([5]; 10 nM): 25.7 ± 4.1%
- Percentage cytotoxicity ([5]; 100 nM): 25.8 ± 2.5%
- Percentage cytotoxicity ([5]; 1 μM): 18.6 ± 1.5%
- Percentage cytotoxicity ([6]; HeP2, 10 pM): 15.1 ± 0.3%
- Percentage cytotoxicity ([6]; HeP2, 100 pM): 20.1 ± 0.0%
- Percentage cytotoxicity ([6]; HeP2, 1 nM): 37.1 ± 3.3%
- Percentage cytotoxicity ([6]; HeP2, 10 nM): 34.6 ± 2.2%
- Percentage cytotoxicity ([6]; HeP2, 100 nM): 23.9 ± 1.1%
- Percentage cytotoxicity ([6]; HeP2, 1 μM): 21.9 ± 2.1%
- Percentage cytotoxicity ([7]; L132, 10 pM): 0.5 ± 0.0%
- Percentage cytotoxicity ([7]; L132, 100 pM): 18.3 ± 0.9%
- Percentage cytotoxicity ([7]; L132, 1 nM): 29.4 ± 0.4%
- Percentage cytotoxicity ([7]; L132, 10 nM): 30.4 ± 0.4%
- Percentage cytotoxicity ([7]; L132, 100 nM): 20.4 ± 1.5%
- Percentage cytotoxicity ([7]; L132, 1 μM): 1.4 ± 1.1%
- Percentage cytotoxicity ([8]; 10 pM): 21.9 ± 2.1%
- Percentage cytotoxicity ([8]; 100 pM): 26.5 ± 2.6%
- Percentage cytotoxicity ([8]; 1 nM): 24.2 ± 1.7%
- Percentage cytotoxicity ([8]; 10 nM): 20.0 ± 0.0%
- Percentage cytotoxicity ([8]; 100 nM): 15.5 ± 0.6%
- Percentage cytotoxicity ([8]; 1 μM): 1.0 ± 0.1%

Structure (SMILES): CC(C)C[C@H](NC(=O)[C@H](Cc1c[nH]cn1)NC(=O)C1(NC(=O)[C@@H](NC(=O)[C@H](C)NC(=O)[C@H](Cc2c[nH]c3ccccc23)NC(=O)[C@H](CCC(N)=O)NC(=O)[C@H](N)Cc2ccccc2)C(C)C)CCCC1)C(N)=O [SEQ ID: 10, D-Phe-Gln-Trp-Ala-Val-Ac5c-His-Leu-NH2] (H-[dF]QWAV[Ac5c]HL-NH2; N-terminus assumed)
- Percentage cytotoxicity ([1]; HuTu80, 10 pM): 13.5 ± 0.8%
- Percentage cytotoxicity ([1]; HuTu80, 100 pM): 22.9 ± 0.2%
- Percentage cytotoxicity ([1]; HuTu80, 1 nM): 23.3 ± 2.8%
- Percentage cytotoxicity ([1]; HuTu80, 10 nM): 20.6 ± 1.7%
- Percentage cytotoxicity ([1]; HuTu80, 100 nM): 21.0 ± 2.0%
- Percentage cytotoxicity ([1]; HuTu80, 1 μM): 17.2 ± 1.1%
- Percentage cytotoxicity ([2]; 10 pM): 19.2 ± 2.9%
- Percentage cytotoxicity ([2]; 100 pM): 25.0 ± 6.3%
- Percentage cytotoxicity ([2]; 1 nM): 31.1 ± 4.1%
- Percentage cytotoxicity ([2]; 10 nM): 27.3 ± 2.7%
- Percentage cytotoxicity ([2]; 100 nM): 22.0 ± 1.1%
- Percentage cytotoxicity ([2]; 1 μM): 16.5 ± 0.2%
- Percentage cytotoxicity ([3]; HBL100, 10 pM): 21.1 ± 0.7%
- Percentage cytotoxicity ([3]; HBL100, 100 pM): 16.6 ± 0.1%
- Percentage cytotoxicity ([3]; HBL100, 1 nM): 23.3 ± 1.6%
- Percentage cytotoxicity ([3]; HBL100, 10 nM): 32.9 ± 0.7%
- Percentage cytotoxicity ([3]; HBL100, 100 nM): 21.2 ± 1.7%
- Percentage cytotoxicity ([3]; HBL100, 1 μM): 18.5 ± 1.7%
- Percentage cytotoxicity ([4]; SW620, 10 pM): 16.7 ± 0.2%
- Percentage cytotoxicity ([4]; SW620, 100 pM): 20.9 ± 0.6%
- Percentage cytotoxicity ([4]; SW620, 1 nM): 22.4 ± 1.7%
- Percentage cytotoxicity ([4]; SW620, 10 nM): 25.5 ± 2.8%
- Percentage cytotoxicity ([4]; SW620, 100 nM): 19.4 ± 1.8%
- Percentage cytotoxicity ([4]; SW620, 1 μM): 22.2 ± 2.1%
- Percentage cytotoxicity ([5]; 10 pM): 22.2 ± 4.9%
- Percentage cytotoxicity ([5]; 100 pM): 21.6 ± 3.1%
- Percentage cytotoxicity ([5]; 1 nM): 29.4 ± 2.9%
- Percentage cytotoxicity ([5]; 10 nM): 32.5 ± 5.1%
- Percentage cytotoxicity ([5]; 100 nM): 29.3 ± 3.2%
- Percentage cytotoxicity ([5]; 1 μM): 28.4 ± 3.6%
- Percentage cytotoxicity ([6]; HeP2, 10 pM): 1.7 ± 0.1%
- Percentage cytotoxicity ([6]; HeP2, 100 pM): 19.1 ± 0.6%
- Percentage cytotoxicity ([6]; HeP2, 1 nM): 27.2 ± 2.6%
- Percentage cytotoxicity ([6]; HeP2, 10 nM): 27.5 ± 2.8%
- Percentage cytotoxicity ([6]; HeP2, 100 nM): 26.3 ± 1.7%
- Percentage cytotoxicity ([6]; HeP2, 1 μM): 19.9 ± 1.5%
- Percentage cytotoxicity ([7]; L132, 10 pM): 1.9 ± 0.2%
- Percentage cytotoxicity ([7]; L132, 100 pM): 29.4 ± 1.9%
- Percentage cytotoxicity ([7]; L132, 1 nM): 29.5 ± 2.8%
- Percentage cytotoxicity ([7]; L132, 10 nM): 27.5 ± 2.8%
- Percentage cytotoxicity ([7]; L132, 100 nM): 27.8 ± 2.1%
- Percentage cytotoxicity ([7]; L132, 1 μM): 22.4 ± 1.8%
- Percentage cytotoxicity ([8]; 10 pM): 11.6 ± 1.7%
- Percentage cytotoxicity ([8]; 100 pM): 16.5 ± 0.5%
- Percentage cytotoxicity ([8]; 1 nM): 25.6 ± 2.1%
- Percentage cytotoxicity ([8]; 10 nM): 20.0 ± 0.0%
- Percentage cytotoxicity ([8]; 100 nM): 15.0 ± 0.5%
- Percentage cytotoxicity ([8]; 1 μM): 10.0 ± 0.0%
